Values quoted from earlier work, collected in patent US11865207B2, “Topical pharmaceutical composition for treatment of anal fissures and hemorrhoids” (Ferring B.V., priority 2018, dated 2024).

Test system: anal fissures
Details: 2% topical diltiazem in an ointment

**Q.** With COc1ccc([C@@H]2Sc3ccccc3N(CCN(C)C)C(=O)[C@@H]2OC(C)=O)cc1 [diltiazem] as the compound, how does the healing rate read?
**A.** 75%
